Measured values as given in patent US10975056B2 (GlaxoSmithKline Intellectual Property Development Limited, priority 2016, dated 2021).
Several values for one entry are separate records, joined by “and”; a condition that tells them apart may be missing. Equal values may be shown once. Where a name gives a salt, the structure may show the parent alone. Read-outs that look alike come from different tables or passages of the source.

Tests used:
[1] = test system: erythroid progenitor cells (EPCs); assay: Fetal hemoglobin (HbF) ELISA in day 7 erythroid progenitor cells; format: cell-based, human; details: Homo sapiens, Erythroid progenitor cell, HbF ELISA, day 7 EPCs, 5 days; read-out: EPC ELISA (pEC50 category) (converted);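 also: for fetal hemoglobin induction normalized to vehicle-treated cells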
Outline: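 HbF induction was read by anti-HbF sandwich ELISA (HRP/TMB, OD450) on lysates and normalized to vehicle-treated cells. Cells were day 7 erythroid progenitors derived from human bone marrow CD34+ cells, seeded at 1,000/well with 3 U/mL rhEPO. Compound was given for 5 days at 37 °C at final concentrations […].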

DNMT1 = DNMT1 (Homo sapiens, UniProt P26358); assay: DNMT1 biochemical activity, breaklight assay and/or SPA assay
DNMT1, sequence (P26358 whole entry, looked up): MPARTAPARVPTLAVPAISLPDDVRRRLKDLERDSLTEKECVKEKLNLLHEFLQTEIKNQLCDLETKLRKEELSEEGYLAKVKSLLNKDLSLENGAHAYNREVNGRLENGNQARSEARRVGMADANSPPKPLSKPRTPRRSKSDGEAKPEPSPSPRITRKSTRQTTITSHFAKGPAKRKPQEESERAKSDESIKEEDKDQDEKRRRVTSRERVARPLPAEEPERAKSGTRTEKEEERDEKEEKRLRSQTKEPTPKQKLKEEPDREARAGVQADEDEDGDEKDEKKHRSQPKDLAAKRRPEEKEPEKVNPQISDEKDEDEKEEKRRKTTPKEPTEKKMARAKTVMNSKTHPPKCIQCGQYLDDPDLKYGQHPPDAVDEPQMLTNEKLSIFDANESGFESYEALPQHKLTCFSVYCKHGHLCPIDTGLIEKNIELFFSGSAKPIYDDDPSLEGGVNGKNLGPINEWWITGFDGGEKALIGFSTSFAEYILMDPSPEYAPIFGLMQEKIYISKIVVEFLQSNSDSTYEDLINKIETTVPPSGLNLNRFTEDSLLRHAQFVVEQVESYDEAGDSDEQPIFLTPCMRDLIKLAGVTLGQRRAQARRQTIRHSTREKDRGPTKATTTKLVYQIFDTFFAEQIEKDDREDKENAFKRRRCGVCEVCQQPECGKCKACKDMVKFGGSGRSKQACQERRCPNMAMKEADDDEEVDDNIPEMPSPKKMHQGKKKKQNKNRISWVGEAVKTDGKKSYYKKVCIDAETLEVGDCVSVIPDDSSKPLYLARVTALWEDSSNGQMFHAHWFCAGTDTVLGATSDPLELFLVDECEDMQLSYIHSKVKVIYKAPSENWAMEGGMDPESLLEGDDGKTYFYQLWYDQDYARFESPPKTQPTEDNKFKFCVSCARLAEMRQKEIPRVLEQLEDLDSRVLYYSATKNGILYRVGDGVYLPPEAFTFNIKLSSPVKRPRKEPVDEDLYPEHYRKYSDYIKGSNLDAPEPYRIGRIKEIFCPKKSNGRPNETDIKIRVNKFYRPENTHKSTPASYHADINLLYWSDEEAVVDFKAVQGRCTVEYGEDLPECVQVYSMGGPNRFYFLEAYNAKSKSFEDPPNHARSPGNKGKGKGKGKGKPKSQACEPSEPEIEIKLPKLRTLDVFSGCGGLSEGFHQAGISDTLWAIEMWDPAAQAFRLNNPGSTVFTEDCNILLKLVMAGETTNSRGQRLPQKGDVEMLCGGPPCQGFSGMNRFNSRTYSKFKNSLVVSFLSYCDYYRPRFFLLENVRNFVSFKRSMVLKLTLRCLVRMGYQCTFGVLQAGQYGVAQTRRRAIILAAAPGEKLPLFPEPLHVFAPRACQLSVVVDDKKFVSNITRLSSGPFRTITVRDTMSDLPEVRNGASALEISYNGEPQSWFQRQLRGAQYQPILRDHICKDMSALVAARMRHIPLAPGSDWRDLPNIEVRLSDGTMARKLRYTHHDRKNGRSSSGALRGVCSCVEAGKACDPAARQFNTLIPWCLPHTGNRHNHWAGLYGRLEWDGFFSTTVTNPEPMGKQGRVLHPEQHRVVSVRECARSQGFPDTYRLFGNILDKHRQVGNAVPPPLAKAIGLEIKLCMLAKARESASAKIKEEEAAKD

[2] = binned activity in either the breaklight or the SPA assay, read-out: DNMT1 BioChemical (pIC50 category) (converted)
[3] = binned activity in either the breaklight or the SPA assay
[4] = breaklight assay and/or SPA assay, repeated experimental runs
[5] = breaklight assay and/or SPA assay, repeated experimental runs, read-out: average pIC50 against DNMT1 (converted)

Which results are given for `CCc1c(C#N)c(SCc2ccc(NC(C)=O)c(F)c2)nc(N2CCCN(C)CC2)c1C#N` [Example 362]?
EC50 [1]: > 31.6 µM; IC50 (DNMT1; [2]): 0.316 to 1 µM

For `CCc1c(C#N)c(SC(C(N)=O)c2cccnc2F)nc(N2CCCN(C)CC2)c1C#N` (stereo not shown) [Example 225], which EC50 [1] is on record?
Its EC50 is 0.316 to 1 µM.

What about the IC50 (DNMT1; [2]) of the same compound?
Its IC50 is 1 to 31.6 µM.

Which EC50 [1] does the source give for `CCc1c(C#N)c(SC(C(N)=O)c2ccccc2)nc(N2CCc3[nH]nnc3C2)c1C#N` (stereo not shown) [Example 359, 2-((3,5-Dicyano-6-(6,7-dihydro-1H-[1,2,3]triazolo[4,5-c]pyridin-5(4H)-yl)-4-ethylpyridin-2-yl)thio)-2-phenylacetamide] here?
The EC50 was 1 to 31.6 µM.

What about the IC50 (DNMT1; [2]) of the same compound?
Its IC50 is 0.316 to 1 µM.

For `CN(C)c1nc(SC(C(N)=O)c2ccncc2)c(C#N)c(C2CC2)c1C#N` (stereo not shown) [Example 26, 2-((3,5-dicyano-4-cyclopropyl-6-(dimethylamino)pyridin-2-yl)thio)-2-(pyridin-4-yl)acetamide], which EC50 [1] is on record?
Its EC50 is greater than 31.6 µM.

And the IC50 (DNMT1; [2])?
Its IC50 is 0.316 to 1 µM.

`CCc1c(C#N)c(SC(C(N)=O)c2ccncc2F)nc(N2CCCN(C)CC2)c1C#N` (stereo not shown) [Example 248, 2-((3,5-Dicyano-4-ethyl-6-(4-methyl-1,4-diazepan-1-yl)pyridin-2-yl)thio)-2-(3-fluoropyridin-4-yl)acetamide] was tested. Which EC50 [1] did it give?
Its EC50 is greater than 31.6 µM.

And the IC50 (DNMT1; [2])?
The IC50 was 0.316 to 1 µM.

Which EC50 [1] does the source give for `CCc1c(C#N)c(SC(C(N)=O)c2ccccc2)nc(N2CCN(N)CC2)c1C#N` (stereo not shown) [Example 234, 2-((6-(4-Aminopiperazin-1-yl)-3,5-dicyano-4-ethylpyridin-2-yl)thio)-2-phenylacetamide, Trifluoroacetic Acid Salt] here?
The EC50 was 1 to 31.6 µM.

What about the IC50 (DNMT1; [2]) of the same compound?
Its IC50 is 0.316 to 1 µM.

With `N#Cc1c(SC(C(N)=O)c2ccncc2)nc(N2CCNCC2)c(C#N)c1C1CC1` (stereo not shown) [Example 30, 2-((3,5-dicyano-4-cyclopropyl-6-(piperazin-1-yl)pyridin-2-yl)thio)-2-(pyridin-4-yl)acetamide] as the compound, how does the EC50 [1] read?
The EC50 was greater than 31.6 µM.

What about the IC50 (DNMT1; [2]) of the same compound?
The IC50 was 0.316 to 1 µM.

Which EC50 [1] does the source give for `CCc1c(C#N)c(SCc2ccc(N(C)S(C)(=O)=O)cc2)nc(N(C)CCN(C)C)c1C#N` [Example 482, N-(4-(((3,5-dicyano-6-((2-(dimethylamino)ethyl)(methyl)amino)-4-ethylpyridin-2-yl)thio)methyl)phenyl)-N-methylmethanesulfonamide] here?
The EC50 was less than 0.316 µM.

What about the “DNMT1 BioChemical (pIC50 category)” value (DNMT1; [3]) of the same compound?
The value was “D (Category D: ≥6.5)”.

How did the EC50 [1] turn out when `CN(CCCN)c1nc(SC(C(N)=O)c2ccccc2)c(C#N)c(C2CC2)c1C#N` (stereo not shown) [Example 391, 2-((6-((3-Aminopropyl) (methyl)amino-3,5-dicyano-4-cyclopropylpyridin-2-yl)thio-2-phenylacetamide, Hydrochloride] was run?
The EC50 was 1 to 31.6 µM.

And the “DNMT1 BioChemical (pIC50 category)” value (DNMT1; [3])?
Its value is “D (Category D: ≥6.5)”.

Which results are given for `CCc1c(C#N)c(SC(C(N)=O)c2ccccc2)nc(N(C)CCN2CCCC2)c1C#N` (stereo not shown) [Example 511, 2-((3,5-dicyano-4-ethyl-6-(methyl(2-(pyrrolidin-1-yl)ethyl)amino)pyridin-2-yl)thio)-2-phenylacetamide]?
EC50 [1]: < 0.316 µM; DNMT1 BioChemical (pIC50 category) (DNMT1; [3]): D (Category D: ≥6.5)

With `CCc1c(C#N)c(SCc2ccc(-c3ccccn3)cc2)nc(N2CCC(N3CCCC3)CC2)c1C#N` [Example 350, 4-Ethyl-2-((4-(pyridin-2-yl)benzyl)thio)-6-(4-(pyrrolidin-1-yl)piperidin-1-yl)pyridine-3,5-dicarbonitrile] as the compound, how does the EC50 [1] read?
Its EC50 is greater than 31.6 µM.

And the IC50 (DNMT1; [2])?
The IC50 was 0.316 to 1 µM.

For `CCc1c(C#N)c(SC(C(N)=O)c2ccccc2)nc(N(C)CCN)c1C#N` (stereo not shown) [Example 144, 2-((6-((2-Aminoethyl)(methyl)amino)-3,5-dicyano-4-ethylpyridin-2-yl)thio)-2-phenylacetamide, Trifluoroacetic Acid Salt], which EC50 [1] is on record?
The EC50 was less than 0.316 µM.

And the “DNMT1 BioChemical (pIC50 category)” value (DNMT1; [3])?
Its value is “D (Category D: ≥6.5)”.

Which results are given for `CCc1c(C#N)c(SC(C(N)=O)c2ccccc2)nc(N2CCC(NCC3(C)COC3)CC2)c1C#N` (stereo not shown) [Example 449, 2-((3,5-dicyano-4-ethyl-6-(4-(((3-methyloxetan-3-yl)methyl)amino)piperidin-1-yl)pyridin-2-yl)thio)-2-phenylacetamide]?
EC50 [1]: < 0.316 µM; DNMT1 BioChemical (pIC50 category) (DNMT1; [3]): D (Category D: ≥6.5)

Which EC50 [1] does the source give for `CCc1c(C#N)c(SCc2ccc(N3CCCS3(=O)=O)cc2)nc(N2CCC(N)CC2)c1C#N` [Example 600, 2-(4-aminopiperidin-1-yl)-6-((4-(1,1-dioxidoisothiazolidin-2-yl)benzyl)thio)-4-ethylpyridine-3,5-dicarbonitrile] here?
Its EC50 is greater than 31.6 µM.

What about the “DNMT1 BioChemical (pIC50 category)” value (DNMT1; [3]) of the same compound?
Its value is “D (Category D: ≥6.5)”.

Which results are given for `CCc1c(C#N)c(SCc2ccc(-c3ccncc3)cc2)nc(N2CCC(N3CCCC3)CC2)c1C#N` [Example 338, 4-Ethyl-2-((4-(pyridin-4-yl)benzyl)thio)-6-(4-(pyrrolidin-1-yl)piperidin-1-yl)pyridine-3,5-dicarbonitrile]?
EC50 [1]: > 31.6 µM; IC50 (DNMT1; [2]): 0.316 to 1 µM

Which results are given for `CCc1c(C#N)c(SCc2ccc(CNC(=O)CO)cc2)nc(N(C)C)c1C#N` [Example 278, N-(4-(((3,5-Dicyano-6-(dimethylamino)-4-ethylpyridin-2-yl)thio)methyl)benzyl)-2-hydroxyacetamide]?
EC50 [1]: 1 to 31.6 µM; DNMT1 BioChemical (pIC50 category) (DNMT1; [3]): D (Category D: ≥6.5)

Which results are given for `CCc1c(C#N)c(SC(C(N)=O)c2ccccc2)nc(N2CCC(C3CCNC3)CC2)c1C#N` (stereo not shown) [Example 121, 2-((3,5-Dicyano-4-ethyl-6-(4-(pyrrolidin-3-yl)piperidin-1-yl)pyridin-2-yl)thio)-2-phenylacetamide; 2,2,2-trifluoroacetic acid]?
EC50 [1]: 0.316 to 1 µM; DNMT1 BioChemical (pIC50 category) (DNMT1; [3]): D (Category D: ≥6.5); average pIC50 against DNMT1 (DNMT1; [4]): > 6.5

Which EC50 [1] does the source give for `CCc1c(C#N)c(SCc2ccc(N(C)C(C)=O)cc2)nc(N2CCCN(C)CC2)c1C#N` [Example 354, N-(4-(((3,5-Dicyano-4-ethyl-6-(4-methyl-1,4-diazepan-1-yl)pyridin-2-yl)thio)methyl)phenyl)-N-methylacetamide] here?
The EC50 was 1 to 31.6 µM.

And the IC50 (DNMT1; [2])?
Its IC50 is 0.316 to 1 µM.

Which results are given for `CCc1c(C#N)c(SC(C(N)=O)c2ccccc2)nc(N(C)CC(C)(O)C(N)=O)c1C#N` (stereo not shown) [Example 261, 3-((6-((2-Amino-2-oxo-1-phenylethyl)thio)-3,5-dicyano-4-ethylpyridin-2-yl)(methyl)amino)-2-hydroxy-2-methylpropanamide]?
EC50 [1]: 1 to 31.6 µM; IC50 (DNMT1; [2]): 0.316 to 1 µM

`CCc1c(C#N)c(SC(C(N)=O)c2ccccc2)nc(N(C)CC(=O)N2CCC(O)CC2)c1C#N` (stereo not shown) [Example 621, 2-((3,5-dicyano-4-ethyl-6-((2-(4-hydroxypiperidin-1-yl)-2-oxoethyl)(methyl)amino)pyridin-2-yl)thio)-2-phenylacetamide] was tested. Which EC50 [1] did it give?
The EC50 was less than 0.316 µM.

What about the “DNMT1 BioChemical (pIC50 category)” value (DNMT1; [3]) of the same compound?
The value was “D (Category D: ≥6.5)”.

`CCc1c(C#N)c(SC(C(N)=O)c2ccc(F)cn2)nc(N(C)C)c1C#N` (stereo not shown) [Example 199] was tested. Which EC50 [1] did it give?
Its EC50 is greater than 31.6 µM.

And the “DNMT1 BioChemical (pIC50 category)” value (DNMT1; [3])?
Its value is “D (Category D: ≥6.5)”.

Which results are given for `CCc1c(C#N)c(S[C@@H](C(N)=O)c2ccccc2)nc(N2CC[C@H](N)[C@H](F)C2)c1C#N` [Example 509, (R)-2-((6-((3R,4S)-4-amino-3-fluoropiperidin-1-yl)-3,5-dicyano-4-ethylpyridin-2-yl)thio)-2-phenylacetamide • (0.67)2,2,2-trifluoroacetate • (0.33)methanesulfonate]?
EC50 [1]: < 0.316 µM; DNMT1 BioChemical (pIC50 category) (DNMT1; [3]): D (Category D: ≥6.5)

How did the EC50 [1] turn out when `CCc1c(C#N)c(S[C@H](C(N)=O)c2ccccc2)nc(N2CC[C@H](N)[C@H](F)C2)c1C#N` [Example 540, (S)-2-((6-((3R,4S)-4-amino-3-fluoropiperidin-1-yl)-3,5-dicyano-4-ethylpyridin-2-yl)thio)-2-phenylacetamide 2,2,2-trifluoroacetate] was run?
Its EC50 is less than 0.316 µM.

And the IC50 (DNMT1; [2])?
Its IC50 is 1 to 31.6 µM.

What about the IC50 (DNMT1; [5]) of the same compound?
The IC50 was ≥ 1 µM and 3.16 µM.

Which results are given for `CCc1c(C#N)c(SC(C(N)=O)c2ccccc2)nc(N2CCO[C@H](CNC(=O)CN)C2)c1C#N` (stereo partly drawn) [Example 592, 2-amino-N-(((2R)-4-(6-((2-amino-2-oxo-1-phenylethyl)thio)-3,5-dicyano-4-ethylpyridin-2-yl)morpholin-2-yl)methyl)acetamide]?
EC50 [1]: < 0.316 µM; DNMT1 BioChemical (pIC50 category) (DNMT1; [3]): D (Category D: ≥6.5); average pIC50 against DNMT1 (DNMT1; [4]): > 6.5; IC50 (DNMT1; [5]): 0.158 µM

`N#Cc1c(SC(C(N)=O)c2ccccc2)nc(N2CCC(OCCN)CC2)c(C#N)c1C1CC1` (stereo not shown) [Example 656, 2-((6-(4-(2-aminoethoxy)piperidin-1-yl)-3,5-dicyano-4-cyclopropylpyridin-2-yl)thio)-2-phenylacetamide] was tested. Which EC50 [1] did it give?
Its EC50 is 1 to 31.6 µM.

And the “DNMT1 BioChemical (pIC50 category)” value (DNMT1; [3])?
Its value is “D (Category D: ≥6.5)”.

Which EC50 [1] does the source give for `CCNC(=O)NCc1ccc(CSc2nc(N3CCCN(C)CC3)c(C#N)c(CC)c2C#N)cc1` [Example 99, 1-(4-(((3,5-Dicyano-4-ethyl-6-(4-methyl-1,4-diazepan-1-yl)pyridin-2-yl)thio)methyl)benzyl)-3-ethylurea] here?
The EC50 was 1 to 31.6 µM.

What about the IC50 (DNMT1; [2]) of the same compound?
The IC50 was 0.316 to 1 µM.

What about the IC50 (DNMT1; [5]) of the same compound?
The IC50 was 0.316 to 1 µM.

Which results are given for `CCc1c(C#N)c(SC(C(N)=O)c2ccccc2)nc(N2CCC(N3[C@H](C)CC[C@@H]3C)CC2)c1C#N` (stereo partly drawn) [Example 452, 2-((3,5-dicyano-6-(4-((2R,5S)-2,5-dimethylpyrrolidin-1-yl)piperidin-1-yl)-4-ethylpyridin-2-yl)thio)-2-phenylacetamide]?
EC50 [1]: < 0.316 µM; DNMT1 BioChemical (pIC50 category) (DNMT1; [3]): D (Category D: ≥6.5)

`CNc1c(C#N)c(SCc2ccc(CNC(C)=O)cc2)nc(N2CCCN(C)CC2)c1C#N` [Example 91, N-(4-(((3,5-Dicyano-6-(4-methyl-1,4-diazepan-1-yl)-4-(methylamino)pyridin-2-yl)thio)methyl)benzyl)acetamide] was tested. Which EC50 [1] did it give?
The EC50 was 1 to 31.6 µM.

And the IC50 (DNMT1; [2])?
Its IC50 is 0.316 to 1 µM.

Which EC50 [1] does the source give for `CCc1c(C#N)c(SCc2ccc(CC(=O)O)cc2)nc(N2CCCN(C)CC2)c1C#N` [Example 72, 2-(4-(((3,5-Dicyano-4-ethyl-6-(4-methyl-1,4-diazepan-1-yl)pyridin-2-yl)thio)methyl)phenyl)acetic acid] here?
Its EC50 is greater than 31.6 µM.

And the IC50 (DNMT1; [2])?
Its IC50 is 1 to 31.6 µM.

What about the IC50 (DNMT1; [5]) of the same compound?
The IC50 was ≥ 1 µM and 2 µM.
